Results taken from patent US10160986B2, “Chemoenzymatic synthesis of heparin and heparan sulfate analogs” (The Regents of the University of California, priority 2011, dated 2018).
Where two headings read alike, the source gives them in different places.

Columns and labels:
NahK_ATCC55813 = NahK_ATCC55813 (Bifidobacterium longum subsp. longum, UniProt E8MF12, D7V/R348H); assay type: biochemical; parameters: made in house; host or cells: E. coli BL21(DE3)
Procedure: (§1) Substrates specificity assays. GlcNAc, GalNAc, and their derivatives (1 mM) were used as substrates in the presence of ATP (1 mM) and MgCl2 (5 mM) in a Tris-HCl buffer (pH 8.0, 200 mM) to analyze the substrate specificity of NahKs. Two concentrations (0.75 μM or 15 μM) of each NahK were used and the reactions were allowed to proceed for 10 min (for 0.75 μM NahK) or 30 min (for 15 μM NahK) at 37° C. […] All other conditions were the same as for GlcNAc, GalNAc, and their derivatives.
(§2) Capillary electrophoresis (CE) assays. Based on the detection of ADP and ATP in the reaction mixture by a UV detector, a capillary electrophoresis-based method was developed to directly measure the formation of ADP and N-acetylhexosamine-1-phosphate from ATP and N-acetylhexosamine for characterizing the activities of NahKs.

NahK_ATCC15697 = NahK_ATCC15697 (Bifidobacterium longum, UniProt B7GN78); experiment: Substrate specificity CE assay, NahK_ATCC15697; assay type: biochemical, Bifidobacterium infantis
Procedure: as §1, §2

NahK = experiment: Kinase reaction monitored by CE (ATP to ADP), NahK; assay type: biochemical, Bifidobacterium infantis; settings: monosaccharide 15 mM, ATP 18 mM, 37° C.
Procedure: Capillary electrophoresis (CE) and thin-layer chromatograph (TLC) assays for kinase reactions. Kinase reactions were carried out at 37° C. in a total volume of 30 μL in Tris-HCl buffer (100 mM, pH 8.0) containing monosaccharide (15 mM), ATP (18 mM, 1.2 eq.), MgCl2 (10 mM), and a kinase (6 μg). These conditions were similar to those used for preparative-scale synthesis. After 1 hr, 4 hr, and 24 hr, an aliquot of 8 μL was withdrawn from each reaction mixture, boiled in a water bath for 5 min and stored at −20° C. until being analyzed by capillary electrophoresis (CE) and TLC. For TLC analysis, 0.5 μL of each sample was directly spotted on TLC plates, developed using suitable developing solvents, and stained with anisaldehyde sugar stain. For CE analysis, 1.5 μL of each sample was diluted into 30 μL and subjected to CE analysis as described above for pH profile studies.
General methods for compound purification and characterization. Chemicals were purchased and used without further purification. ^1H NMR and ^13C NMR spectra were recorded on a Varian Mercury 600 NMR spectrometer. High resolution electrospray ionization (ESI) mass spectra were obtained in negative mode using Thermo Electron LTQ-Orbitrap mass spectrometer. Silica gel 60 Å (Sorbent Technologies) was used for flash column chromatography. Thin-layer chromatography (TLC) was performed on silica gel plates 60 GF254 (Sorbent Technologies) using anisaldehyde sugar stain for detection. Gel filtration chromatography was performed with a column (100 cm×2.5 cm) packed with BioGel P-2 Fine resins (Bio-Rad). GlcN3 (T6-9) (Lau K, Thon, V, Yu H, Ding L, Chen Y, Muthana M M, Wong D, Huang R, and Chen X. Chem. Commun. 2010, 46, 6066-6068), ManF (T6-11) (Burkart M D, Zhang Z, Hung S-C, and Wong C-H. J. Am. Chem. Soc. 1997, 119, 11743-11746; Cao H, Li Y, Lau K, Muthana S, Yu H, Cheng J, Chokhawala H A, Sugiarto G, Zhang L, and Chen X. Org. Biomol. Chem. 2009, 7, 5137-5145), GalN3 (T6-4) and ManN3 (T6-14) (Yu H, Yu H, Karpel R, cand Chen X. Bioorg. Med. Chem. 2004, 12, 6427-6435) were previously synthesized using reported methods. NahK_ATCC15697, EcGalK, SpGalK, and PmPpA were overexpressed as described previously.

[1] = Glc, Gal, Man, ManNAc and derivatives, enzyme 15, 37° C. for 30 min (Table 3)
[2] = 0.75 μM enzyme, 10 min at 37° C., substrate 1 mM, ATP 1 mM
[3] = 15 μM enzyme, 30 min at 37° C., substrate 1 mM, ATP 1 mM (Table 2)
[4] = Glc, Gal, Man, ManNAc and derivatives, enzyme 15, 37° C. for 30 min (Table 3), listed as drawing 49

SMILES | Percentage Conversion (NahK_ATCC55813; [1]) [%] | Percentage Conversion (NahK_ATCC15697; [1]) [%] | Percentage Conversion (NahK_ATCC55813; [2]) [%] | Percentage Conversion (NahK_ATCC55813; [3]) [%] | Percentage Conversion (NahK_ATCC15697; [2]) [%] | Percentage Conversion (NahK_ATCC15697; [3]) [%] | further results
O=C(CO)NC1C(O)OC(CO)[C@@H](O)C1O (some centres unmarked) | 5.4 ± 0.2 | 7.6 ± 0.1 | – | – | – | – | –
O=C(CF)NC1C(O)OC(CO)[C@@H](O)C1O (some centres unmarked) | 9.1 ± 0.2 | 12.0 ± 0.1 | – | – | – | – | –
COCC(=O)NC1C(O)OC(CO)[C@@H](O)C1O (some centres unmarked) | 7.4 ± 0.3 | 12.0 ± 0.4 | – | – | – | – | –
O=S(=O)(O)NC1C(O)OC(CO)[C@@H](O)C1O (some centres unmarked) [2-N-sulfo-glucose] | – | – | 0 | 4.0 ± 0.1 | 0 | 6.4 ± 0.2 | –
NC1C(O)OC(CO)[C@@H](O)[C@@H]1O (some centres unmarked) [2-amino-2-deoxy-glucose] | – | – | 0 | 8.4 ± 0.1 | 0 | 15.0 ± 0.1 | ATP Conversion (NahK; 1 hr): 11.9%; ATP Conversion (NahK; 4 hr): 28.0%; ATP Conversion (NahK; 24 hr): 67.1%
OCC1OC(O)C[C@@H](O)[C@@H]1O (some centres unmarked) [2-deoxy glucose] | 28.4 ± 0.1 | 44.8 ± 0.2 | – | – | – | – | ATP Conversion (NahK; 1 hr): 36.8%; ATP Conversion (NahK; 4 hr): 69.6%; ATP Conversion (NahK; 24 hr): 79.4%
COC1C(O)OC(CO)[C@@H](O)C1O (some centres unmarked) [2Me-Man] | 0 | 9.4 ± 0.5 | – | – | – | – | –
[N-]=[N+]=NC1C(O)OC(CO)[C@@H](O)C1O (some centres unmarked) [2N3-Man] | 40.2 ± 0.2 | 53.3 ± 0.1 | – | – | – | – | ATP Conversion (NahK; 1 hr): 34.9%; ATP Conversion (NahK; 4 hr): 65.9%; ATP Conversion (NahK; 24 hr): 76.4%
[N-]=[N+]=N[C@@H](C=O)[C@@H](OS(=O)(=O)O)[C@H](O)[C@H](O)CO [3-O-sulfo-2-azido-2-deoxy glucose] | – | – | 0 | 3.9 ± 0.1 | 0 | 4.9 ± 0.1 | –
OCC1CC(O)C(O)C(O)O1 (centres unmarked) [4-deoxyMan] | 23.9 ± 0.1 | 37.1 ± 0.2 | – | – | – | – | –
[N-]=[N+]=NC1C(O)OC(COS(=O)(=O)O)[C@@H](O)[C@@H]1O (some centres unmarked) [6-O-sulfo-2-azido-2-deoxy glucose] | – | – | 0 | 4.4 ± 0.1 | 0 | 6.9 ± 0.1 | –
CC(=O)NC1C(O)OC(COS(=O)(=O)O)[C@@H](O)C1O (some centres unmarked) [6-O-sulfo-GlcNAc] | – | – | 0 | 6.6 ± 0.1 | 0 | 11.7 ± 0.2 | –
O=C(NC1C(O)OC(COS(=O)(=O)O)[C@@H](O)C1O)C(F)(F)F (some centres unmarked) [6-O-sulfo-N-trifluoroacetyl glucosamine] | – | – | 0 | 3.3 ± 0.2 | 0 | 7.2 ± 0.1 | –
CC(=O)NC1C(O)OC(CN=[N+]=[N-])[C@@H](O)C1O (some centres unmarked) [6-azido-6-deoxy-GlcNAc] | – | – | 0 | 23.4 ± 0.1 | 0 | 37.2 ± 0.5 | –
CC(=O)NC1C(O)OC(C)[C@@H](O)C1O (some centres unmarked) [6-deoxy-GlcNAc] | – | – | 2.1 ± 0.2 | 36.3 ± 0.3 | 4.4 ± 1.2 | 41.8 ± 0.3 | –
[N-]=[N+]=NCC(=O)NC1C(O)OC(CO)[C@H](O)C1O (some centres unmarked) [GalNAcN3] | – | – | 21.0 ± 1.2 | – | 9.9 ± 0.6 | – | –
CCCC(=O)NC1C(O)OC(CO)[C@H](O)C1O (some centres unmarked) [GalNBu] | – | – | 24.0 ± 0.1 | – | 12.1 ± 0.3 | – | –
O=C(NC1C(O)OC(CO)[C@H](O)C1O)c1ccccc1 (some centres unmarked) [GalNBz] | – | – | 0 | 51.9 ± 0.5 | 0 | 62.2 ± 1.0 | –
O=C(NC1C(O)OC(CO)[C@H](O)C1O)C(F)(F)F (some centres unmarked) [GalNTFA] | – | – | 21.8 ± 0.2 | – | 11.2 ± 1.6 | – | –
CC(=O)NC1C(O)OC(CO)[C@@H](O)[C@@H]1O (some centres unmarked) [GlcNAc, N-acetylglucosamine] | – | – | 42.3 ± 0.2 | – | 35.4 ± 0.1 | – | ATP Conversion (NahK; 1 hr): 72.6%; ATP Conversion (NahK; 4 hr): 84.6%; ATP Conversion (NahK; 24 hr): 85.5%
[N-]=[N+]=NCC(=O)NC1C(O)OC(CO)[C@@H](O)C1O (some centres unmarked) [GlcNAcN3] | – | – | 22.8 ± 0.4 | – | 11.5 ± 1.0 | – | –
CCCC(=O)NC1C(O)OC(CO)[C@@H](O)C1O (some centres unmarked) [GlcNBu] | – | – | 35.0 ± 2.0 | – | 20.9 ± 0.6 | – | –
O=C(NC1C(O)OC(CO)[C@@H](O)C1O)c1ccccc1 (some centres unmarked) [GlcNBz] | – | – | 5.2 ± 0.2 | – | 10.3 ± 0.4 | – | –
O=C(NC1C(O)OC(CO)[C@@H](O)C1O)C(F)(F)F (some centres unmarked) [GlcNTFA] | – | – | 16.2 ± 0.9 | – | 10.7 ± 0.9 | – | –
OCC1OC(O)C(O)[C@@H](O)[C@@H]1O (some centres unmarked) [Man, mannose] | – | – | – | – | – | – | Percentage Conversion (NahK_ATCC55813; [4]): 37.1 ± 0.4%; ATP Conversion (NahK; 1 hr, listed as T6-11 Man): 29.6%; ATP Conversion (NahK; 4 hr, listed as T6-11 Man): 69.3%; ATP Conversion (NahK; 24 hr, listed as T6-11 Man): 75.1%; Percentage Conversion (NahK_ATCC15697; [4]): 68.0 ± 1.7%
COCC1OC(O)C(NC(C)=O)[C@@H](O)[C@@H]1O (some centres unmarked) [N-acetyl-6-O-methylmannosamine] | 28.9 ± 0.1 | 32.6 ± 0.1 | – | – | – | – | –
CC(=O)N[C@@H]1C(O)O[C@H](CO)[C@@H](O)[C@@H]1O (some centres unmarked) [N-acetylmannosamine] | 5.5 ± 0.1 | 8.9 ± 0.1 | – | – | – | – | ATP Conversion (NahK; 1 hr): 11.4%; ATP Conversion (NahK; 4 hr): 26.1%; ATP Conversion (NahK; 24 hr): 73.8%
[N-]=[N+]=NCC(=O)N[C@@H]1C(O)O[C@H](CO)[C@@H](O)[C@@H]1O (some centres unmarked) [N-azidoacetylmannosamine] | 18.6 ± 0.4 | 20.3 ± 0.3 | – | – | – | – | –
N[C@@H]1C(O)O[C@H](CO)[C@@H](O)[C@@H]1O (some centres unmarked) [T6-13 ManNH2, mannosamine] | – | – | – | – | – | – | ATP Conversion (NahK; 1 hr): 10.3%; ATP Conversion (NahK; 4 hr): 22.8%; ATP Conversion (NahK; 24 hr): 58.0%
